Measured values: patent US20260138961A1, “MODULATORS OF MITOCHONDRIAL DNA REPLICATION” (Pretzel Therapeutics, Inc., priority 2022, published 2026)

What follows are compounds tested against T1, POLγA:A467T (Homo sapiens, UniProt P54098, A467T) (assay: DNA polymerization assay, POLγA:A467T mutant). Settings: A467T AC50, stimulation of polymerase activity, primed M13mp18 ssDNA, 37° C. 2 hours.
T1 sequence (P54098 1-1239 A467T): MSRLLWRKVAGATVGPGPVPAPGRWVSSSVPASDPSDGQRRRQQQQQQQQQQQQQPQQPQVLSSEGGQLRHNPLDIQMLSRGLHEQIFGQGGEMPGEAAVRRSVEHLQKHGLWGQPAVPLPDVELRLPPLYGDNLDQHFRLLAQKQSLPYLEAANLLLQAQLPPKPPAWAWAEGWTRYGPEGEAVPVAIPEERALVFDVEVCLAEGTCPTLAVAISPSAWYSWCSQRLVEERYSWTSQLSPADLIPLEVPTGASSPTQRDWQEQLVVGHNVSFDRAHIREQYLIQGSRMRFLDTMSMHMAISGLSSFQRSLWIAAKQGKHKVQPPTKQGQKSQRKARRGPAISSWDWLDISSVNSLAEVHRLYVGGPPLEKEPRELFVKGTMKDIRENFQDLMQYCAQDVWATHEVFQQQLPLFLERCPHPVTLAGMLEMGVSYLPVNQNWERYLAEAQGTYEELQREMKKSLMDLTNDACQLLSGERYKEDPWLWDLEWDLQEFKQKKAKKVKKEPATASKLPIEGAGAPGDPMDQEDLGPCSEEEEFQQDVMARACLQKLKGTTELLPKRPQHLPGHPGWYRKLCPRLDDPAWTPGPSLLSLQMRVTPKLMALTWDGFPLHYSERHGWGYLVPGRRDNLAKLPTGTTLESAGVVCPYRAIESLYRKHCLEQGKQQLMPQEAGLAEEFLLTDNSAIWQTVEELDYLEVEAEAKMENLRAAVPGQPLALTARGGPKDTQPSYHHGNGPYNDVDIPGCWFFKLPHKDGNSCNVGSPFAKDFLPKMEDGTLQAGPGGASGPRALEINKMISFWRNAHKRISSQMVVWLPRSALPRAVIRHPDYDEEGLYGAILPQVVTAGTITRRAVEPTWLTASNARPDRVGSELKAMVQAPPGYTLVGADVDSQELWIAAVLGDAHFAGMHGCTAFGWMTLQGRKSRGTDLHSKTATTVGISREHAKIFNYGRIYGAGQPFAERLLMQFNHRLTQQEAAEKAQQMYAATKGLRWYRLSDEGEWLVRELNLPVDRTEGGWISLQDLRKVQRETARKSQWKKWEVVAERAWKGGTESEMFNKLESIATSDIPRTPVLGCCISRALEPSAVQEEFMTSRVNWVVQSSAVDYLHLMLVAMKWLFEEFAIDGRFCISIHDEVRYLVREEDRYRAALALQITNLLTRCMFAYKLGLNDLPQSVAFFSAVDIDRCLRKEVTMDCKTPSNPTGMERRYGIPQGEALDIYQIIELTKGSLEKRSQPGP
T1 sequence (Q9UHN1 1-485 partner): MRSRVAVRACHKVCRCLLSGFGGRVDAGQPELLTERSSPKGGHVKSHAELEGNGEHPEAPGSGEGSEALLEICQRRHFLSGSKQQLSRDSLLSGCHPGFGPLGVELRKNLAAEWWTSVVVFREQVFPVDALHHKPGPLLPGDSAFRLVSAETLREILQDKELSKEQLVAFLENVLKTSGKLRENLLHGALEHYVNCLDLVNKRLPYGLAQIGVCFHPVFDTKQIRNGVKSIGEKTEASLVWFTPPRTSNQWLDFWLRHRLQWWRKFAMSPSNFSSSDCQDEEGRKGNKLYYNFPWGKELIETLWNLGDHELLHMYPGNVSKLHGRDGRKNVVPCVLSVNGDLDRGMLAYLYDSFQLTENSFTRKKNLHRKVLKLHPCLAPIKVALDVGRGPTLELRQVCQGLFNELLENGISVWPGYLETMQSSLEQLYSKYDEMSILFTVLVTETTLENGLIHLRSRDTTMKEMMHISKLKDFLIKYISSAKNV
Assay type: biochemical
Compound `Cc1cc(S(=O)(=O)Nc2noc(-c3ccccc3)n2)c(C)cc1Cl` [Example 142, 4-chloro-2,5-dimethyl-N-(5-phenyl-1,2,4-oxadiazol-3-yl)benzenesulfonamide] has an AC50 of over 100 µM.

Same assay, conditions: stimulation of polymerase activity, primed M13mp18 ssDNA, 37° C. 2 hours; read-out: A467T AC50
`Cc1cc(S(=O)(=O)Nc2nc(-c3ccccc3)no2)c(C)cc1Cl` [Example 143, 4-chloro-2,5-dimethyl-N-(3-phenyl-1,2,4-oxadiazol-5-yl)benzenesulfonamide] was tested, and the AC50 was over 100 µM. For `Cc1cc(S(=O)(=O)Nc2cccc(C(=O)N3CCC[C@H]3CO)c2)c(C)cc1Cl` [Example 145, (S)-4-chloro-N-(3-(2-(hydroxymethyl)pyrrolidine-1-carbonyl)phenyl)-2,5-dimethylbenzenesulfonamide], the AC50 was over 100 µM. Compound `Cc1cc(S(=O)(=O)Nc2csc(-c3ccccc3)n2)c(F)cc1Cl` [Example 146, 4-chloro-2-fluoro-5-methyl-N-(2-phenylthiazol-4-yl)benzenesulfonamide] has an AC50 of over 100 µM. For `O=S(=O)(Nc1csc(-c2ccccc2)n1)c1ccccc1` [Example 147, N-(2-phenylthiazol-4-yl)benzenesulfonamide], the AC50 was over 100 µM. `Cc1cc(S(=O)(=O)Nc2csc(-c3ccccc3)n2)ccc1Cl` [Example 148, 4-chloro-3-methyl-N-(2-phenylthiazol-4-yl)benzenesulfonamide] was tested, and the AC50 was over 100 µM. In the case of `Cc1cc(S(=O)(=O)N[C@@H]2CCCN(c3ccccc3)C2)c(C)cc1Cl` [Example 149, (R)-4-chloro-2,5-dimethyl-N-(1-phenylpiperidin-3-yl)benzenesulfonamide], the AC50 is reported as over 100 µM. For `Cc1cc(S(=O)(=O)N[C@@H]2CCCN(C(=O)c3ccccc3)C2)c(C)cc1Cl` [Example 150, (R)-N-(1-benzoylpiperidin-3-yl)-4-chloro-2,5-dimethylbenzenesulfonamide], the AC50 was over 100 µM. For `O=S(=O)(Nc1csc(-c2ccccc2)n1)c1cccc(C(F)(F)F)c1` [Example 151, N-(2-phenylthiazol-4-yl)-3-(trifluoromethyl)benzenesulfonamide], the AC50 was over 100 µM. For `O=S(=O)(Nc1csc(-c2ccccc2)n1)c1ccc2c(c1)CCO2` [Example 152, N-(2-phenylthiazol-4-yl)-2,3-dihydrobenzofuran-5-sulfonamide], the AC50 was over 100 µM. Work on `Cc1cc(S(=O)(=O)N[C@@H]2CCCN(C(=O)N3CCCC3)C2)c(C)cc1Cl` [Example 153, (R)-4-chloro-2,5-dimethyl-N-(1-(pyrrolidine-1-carbonyl)piperidin-3-yl)benzenesulfonamide] yielded an AC50 of over 100 µM. For `Cc1cc(S(=O)(=O)Nc2ccc3c(c2)CC(=O)N3)c(C)cc1Cl` [Example 185, 4-chloro-2,5-dimethyl-N-(2-oxoindolin-5-yl)benzenesulfonamide], the AC50 was 55 µM. “(R)-2,5-dimethyl-N-(3-(3-methylmorpholine-4-carbonyl)phenyl)benzenesulfonamide [Example 1]” was tested, and the AC50 was 44 µM.
